“Also recorded” adds a separate entry of the source.
What was measured:
C57BL/6J mice [1] = test: Tail-flick assay; conditions: mouse, in vivo
C57BL/6J mice [2] = test: Conditioned place preference; conditions: mouse, in vivo
Procedure: On day 1 (preconditioning day), mice were placed in the central chamber and allowed to explore freely for 30 minutes. Time spent in each compartment was used to estimate baseline chamber preferences and mice showing specific chamber bias more than 70% were not studied further. On days 2-9 (conditioning days) mice were injected with either vehicle or drug and paired with either the white mesh or the black rod chambers. All mice received vehicle on days 2, 4, 6, 8 and drug on days 3, 5, 7, 9. On day 10 (test day), mice were again placed in the central chamber as on day 1 and allowed to explore freely for 30 minutes. Time spent in each chamber was expressed as percentage preference.

[3] = tested on: Oprm1−/− and wild-type C57Bl/6J mice; test: Hot plate in μOR knockout mice and subcategorization of affective/reflexive pain; type: in vivo, mouse
Procedure: Analgesia in μOR knockout mice and subcategorization of affective/reflexive pain: Oprm1−/− and wild-type C57Bl/6J mice (male; 8-11 weeks) were acclimated to the testing environment and thermal-plate equipment for three non-consecutive days between 11 A.M. and 1 P.M. prior to any pharmacological studies. Acclimation was achieved by individually confining mice within an enclosed semi-transparent red plastic cylinder (10 cm D×15 cm H) on a raised metal-mesh rack (61 cm H) for 30 minutes, and then exposing each mouse to the thermal-plate equipment (non-heated; floor dimensions, 16.5×16.5 cm; Bioseb), while confined within a clear plastic chamber (16 L×16 W×30H cm). Acclimation exposure to the thermal plate lasted for 30 seconds, and exposure was repeated after 30 minutes to mimic the test day conditions. […] The same experimenter ([…] ) was present throughout the entire duration of habituation and testing to exclude possible olfaction-induced alterations in sensory thresholds.
Cutaneous application of a noxious stimulus, or time spent on a hot plate apparatus can broadly elicit several distinct behavioral responses: 1. Withdrawal reflexes: rapid reflexive retraction or digit splaying of the paw, 2. […] Paw withdrawal reflexes are classically measured in studies of hypersensitivity, and involve simple spinal cord and brainstem circuits. […]

C57BL/6J mice [4] = test: Accumulated fecal boli quantification (constipation); conditions: PZM21 20 mg/kg, morphine 10 mg/kg
C57BL/6J mice [5] = test: Cataleptic effect (bar test); conditions: PZM21 20 mg/kg
Procedure: Drug induced catalepsy was measured in mice using the bar test, which includes a horizontally placed 3 mm diameter wooden bar fixed 4 cm above the floor. […] To measure catalepsy, both forepaws were gently placed on the bar and the length of time during which each mouse remained in the initial position was measured. The effect was measured at 15, 30 and 90 minutes after drug injection. Maximum cut-off time for each challenge was 90 seconds.

C57BL/6J mice [6] = test: Open field locomotor response; conditions: PZM21 20 mg/kg, morphine 10 mg/kg
δOR = target: T1, δOR (Homo sapiens, UniProt P41143); test: Radioligand binding at δOR (PDSP)
T1 construct: NIMH Psychoactive Drug Screening Program (PDSP)

μOR [7] = target: T2, μOR (Homo sapiens, UniProt P35372); test: β-arrestin2 recruitment, PathHunter assay; type: cell-based
nociceptin receptor = target: T3, nociceptin receptor (Homo sapiens, UniProt P41146); test: Gi/o Glosensor assay at nociceptin receptor; type: cell-based
T3 construct: NIMH Psychoactive Drug Screening Program (PDSP)

320 non-olfactory GPCRs = test: PRESTO-Tango GPCRome β-arrestin recruitment screen for off-target agonism; type: cell-based; conditions: 10 μM, hits re-tested in full dose-response
From the text: Potential positive receptor hits were defined as those that increase the relative luminescence value by two fold. […] A number of false positive hits were discounted by this approach.

μOR [8] = target: T2, μOR; test: Receptor internalization (PathHunter GPCR internalization assay); type: cell-based; conditions: maximal concentration
C57BL/6J mice [9] = test: Hot-plate analgesia
[10] = Metabolism by mouse liver microsomes; type: in vitro ADME; conditions: over one hour
Procedure: Metabolism experiments were performed as described previously. In brief, pooled microsomes from male mouse liver (CD-1) were purchased (Sigma Aldrich) and stored at −75° C. until required. NADPH was purchased (Carl Roth) and stored at −8° C. The incubation reactions were carried out in polyethylene caps (Eppendorf, 1.5 mL) at 37° C. […] The final incubation volume was 0.5 mL. Microsomal reactions were initiated by addition of 50 μL of enzyme cofactor solution NADPH (final concentration of 1 mM). At 0, 15, 30 and 60 min the enzymatic reactions were terminated by addition of 500 μL of ice-cold acetonitrile (containing 8 μM internal standard), and precipitated protein was removed by centrifugation (15,000 rcf for 3 min). The supernatant was analyzed by HPLC/MS (binary solvent system, eluent acetonitrile in 0.1% aqueous formic acid, 10-40% acetonitrile in 8 min, 40-95% acetonitrile in 1 min, 95% acetonitrile for 1 min, flow rate of 0.3 mL/min). The experiments were repeated in three independent experiments. […] Substrate remaining and metabolite formation was calculated as a mean value+SEM of three independent experiments by comparing AUC of metabolites and substrate after predetermined incubation time to AUC of substrate at time 0, estimating a similar ionization rate, corrected by a factor calculated from the AUC of internal standard at each time point.

κOR = target: T4, κOR (Homo sapiens, UniProt P41145); test: Radioligand binding at κOR (PDSP); conditions: Ki (nM) κOR
T4 construct: NIMH Psychoactive Drug Screening Program (PDSP)
T4 sequence (P41145 whole entry): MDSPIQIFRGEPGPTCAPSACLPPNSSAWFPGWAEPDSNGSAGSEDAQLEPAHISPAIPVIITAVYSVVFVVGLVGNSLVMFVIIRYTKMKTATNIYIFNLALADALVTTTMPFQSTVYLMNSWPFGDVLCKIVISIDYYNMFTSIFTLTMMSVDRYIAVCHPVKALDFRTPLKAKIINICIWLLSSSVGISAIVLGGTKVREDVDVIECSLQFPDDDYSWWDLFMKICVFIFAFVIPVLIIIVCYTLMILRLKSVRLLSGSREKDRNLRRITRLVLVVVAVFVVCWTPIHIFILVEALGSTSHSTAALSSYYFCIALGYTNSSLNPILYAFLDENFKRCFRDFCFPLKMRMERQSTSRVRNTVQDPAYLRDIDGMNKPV

T2 sequence (P35372 whole entry): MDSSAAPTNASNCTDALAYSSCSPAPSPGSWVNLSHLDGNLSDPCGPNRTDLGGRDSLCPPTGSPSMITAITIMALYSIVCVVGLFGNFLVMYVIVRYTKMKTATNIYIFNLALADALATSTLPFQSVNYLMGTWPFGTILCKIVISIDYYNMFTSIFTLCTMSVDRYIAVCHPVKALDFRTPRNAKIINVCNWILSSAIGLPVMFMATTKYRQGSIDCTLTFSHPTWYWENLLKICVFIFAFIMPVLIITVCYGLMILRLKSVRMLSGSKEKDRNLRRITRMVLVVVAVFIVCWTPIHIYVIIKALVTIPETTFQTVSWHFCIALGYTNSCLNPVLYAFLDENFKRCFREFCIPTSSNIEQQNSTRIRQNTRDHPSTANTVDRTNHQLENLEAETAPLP
T1 sequence (P41143 whole entry): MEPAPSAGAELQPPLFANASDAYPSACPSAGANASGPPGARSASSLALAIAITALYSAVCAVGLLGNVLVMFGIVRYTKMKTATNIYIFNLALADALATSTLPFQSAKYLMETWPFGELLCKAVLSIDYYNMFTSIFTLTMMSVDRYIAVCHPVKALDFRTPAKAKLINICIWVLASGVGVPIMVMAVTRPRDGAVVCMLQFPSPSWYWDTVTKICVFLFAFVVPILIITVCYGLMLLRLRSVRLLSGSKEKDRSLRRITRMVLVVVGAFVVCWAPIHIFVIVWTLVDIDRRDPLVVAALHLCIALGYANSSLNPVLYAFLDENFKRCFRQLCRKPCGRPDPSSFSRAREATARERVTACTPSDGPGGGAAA
T3 sequence (P41146 whole entry): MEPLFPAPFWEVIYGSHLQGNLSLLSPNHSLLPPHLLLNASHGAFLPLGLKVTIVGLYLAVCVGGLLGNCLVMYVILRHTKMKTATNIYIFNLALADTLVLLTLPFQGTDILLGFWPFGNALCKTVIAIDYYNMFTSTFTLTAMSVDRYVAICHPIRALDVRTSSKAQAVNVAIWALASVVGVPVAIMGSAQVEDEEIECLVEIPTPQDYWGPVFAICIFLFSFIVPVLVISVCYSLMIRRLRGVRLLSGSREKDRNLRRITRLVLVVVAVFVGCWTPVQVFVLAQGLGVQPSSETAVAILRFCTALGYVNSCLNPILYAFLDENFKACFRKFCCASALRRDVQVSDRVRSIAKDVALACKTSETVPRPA

## C[C@@H](Cc1ccsc1)NC(=O)NC[C@H](Cc1ccc(O)cc1)N(C)C [PZM21, 1-[(S)-2-(Dimethylamino)-3-(4-hydroxyphenyl)propyl]-3-((S)-1-(thiophen-3-yl)propan-2-yl)urea]
C57BL/6J mice [1]
  analgesic effect in tail-flick assay: no activity; also recorded: no analgesic effect
C57BL/6J mice [2]
  conditioned place preference: does not induce a conditioned place preference response
[3]; hot plate 52.5° C., PZM21 20 mg/kg, 20 mg/kg
  affective versus reflexive component of pain: only modulates the affective component of pain; also recorded: solely confers analgesia to the affective component of pain
[3]; hot-plate assay
  analgesic response in μOR knockout mice: completely ablates the observed analgesic response
C57BL/6J mice [4]
  constipation effect: reduced constipatory effects as compared to morphine; also recorded: substantially less than morphine
C57BL/6J mice [5]
  cataleptic behavior: does not induce cataleptic behavior
C57BL/6J mice [6]
  open field locomotion: does not induce open field locomotion; also recorded: no apparent effect on locomotion versus vehicle
δOR
  Ki: 506 nM
μOR [7]
  β-arrestin2 recruitment (in words): undetectable; also recorded: minimal recruitment of β-arrestin2; also recorded: no detectable
Nociceptin receptor
  nociceptin receptor agonist activity (in words): no detectable
320 non-olfactory GPCRs
  agonism against 316 other GPCRs: no potent activity was confirmed
μOR [8]
  μOR internalization: minimal level of μOR internalization compared to DAMGO and morphine
C57BL/6J mice [9]; hot plate
  duration of analgesia: up to 180 minutes
C57BL/6J mice [9]; hot plate, highest dose of drug tested, 15 minutes after administration
  percent maximal possible effect (% MPE): 87%
C57BL/6J mice [9]; mouse, subcutaneous
  analgesia in hot-plate assay (in words): dose-dependent analgesia
[10]
  metabolism by mouse liver microsomes: 8%
κOR
  Ki: 18 nM
